How the values were obtained:
Test in all cases: Weeding effect in post-emergence stage
Assay type in all cases: in vivo
Echinochloa crusgalli = conditions: for Weeding effect in post-emergence stage, Echinochloa crusgalli: level of fresh weight growth control rate; for Weeding effect in post-emergence stage, Echinochloa crusgalli (level): fresh weight control rate level
How it was run: (§1)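 Read-out is growth control rate, counted 3 weeks post-spray and averaged over three repeats. Greenhouse plants at the 2-3 leaf stage received spray-tower application at 500, 250, 125, 60, 30, 15 or 7.5 g/ha, with methyl oleate EC (1.5 liter/ha) and Tween 80 added.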

Setaria viridis = conditions: for Weeding effect in post-emergence stage, Setaria viridis: level of fresh weight growth control rate; for Weeding effect in post-emergence stage, Setaria viridis (level): fresh weight control rate level
How it was run: as §1

Digitaria sanguinalis = conditions: for Weeding effect in post-emergence stage, Digitaria sanguinalis: level of fresh weight growth control rate; for Weeding effect in post-emergence stage, Digitaria sanguinalis (level): fresh weight control rate level
How it was run: as §1

Eleusine indica = conditions: for Weeding effect in post-emergence stage, Eleusine indica: level of fresh weight growth control rate; for Weeding effect in post-emergence stage, Eleusine indica (level): fresh weight control rate level
How it was run: as §1

Alopecurus japonicus = conditions: for Weeding effect in post-emergence stage, Alopecurus japonicus: level of fresh weight growth control rate; for Weeding effect in post-emergence stage, Alopecurus japonicus (level): fresh weight control rate level
How it was run: as §1

Abutilon theophrasti = conditions: for Weeding effect in post-emergence stage, Abutilon theophrasti: level of fresh weight growth control rate; for Weeding effect in post-emergence stage, Abutilon theophrasti (level): fresh weight control rate level
How it was run: as §1

| SMILES | Weeding effect in post-emergence stage, Echinochloa crusgalli (Echinochloa crusgalli; Dose 15 g/ha) | Weeding effect in post-emergence stage, Setaria viridis (Setaria viridis; Dose 15 g/ha) | Weeding effect in post-emergence stage, Digitaria sanguinalis (Digitaria sanguinalis; Dose 15 g/ha) | Weeding effect in post-emergence stage, Eleusine indica (Eleusine indica; Dose 15 g/ha) | Weeding effect in post-emergence stage, Alopecurus japonicus (Alopecurus japonicus; Dose 15 g/ha) | Weeding effect in post-emergence stage, Abutilon theophrasti (Abutilon theophrasti; Dose 15 g/ha) | other results |
| --- | --- | --- | --- | --- | --- | --- | --- |
| COC(=O)C(C)(C)OC(=O)C(C)O/N=C/c1cc(-n2c(=O)cc(C(F)(F)F)n(C)c2=O)c(F)cc1Cl (stereo not drawn) [Compound 243] | 5 (Level 5: growth control rate is above 85%) | 5 (Level 5: growth control rate is above 85%) | 5 (Level 5: growth control rate is above 85%) | 5 (Level 5: growth control rate is above 85%) | 5 (Level 5: growth control rate is above 85%) | 5 (Level 5: growth control rate is above 85%) | – |
| COC(=O)C(C)O/N=C/c1cc(-n2c(=S)cc(C(F)(F)F)n(C)c2=S)c(F)cc1Br (racemic) [Compound 391] | – | – | – | – | – | – | Weeding effect in post-emergence stage, Echinochloa crusgalli (level) (Echinochloa crusgalli; Dose 60 g/ha): 5 (Level 5: growth control rate is above 85%); Weeding effect in post-emergence stage, Setaria viridis (level) (Setaria viridis; Dose 60 g/ha): 5 (Level 5: growth control rate is above 85%); Weeding effect in post-emergence stage, Digitaria sanguinalis (level) (Digitaria sanguinalis; Dose 60 g/ha): 5 (Level 5: growth control rate is above 85%); Weeding effect in post-emergence stage, Eleusine indica (level) (Eleusine indica; Dose 60 g/ha): 5 (Level 5: growth control rate is above 85%); Weeding effect in post-emergence stage, Alopecurus japonicus (level) (Alopecurus japonicus; Dose 60 g/ha): 5 (Level 5: growth control rate is above 85%); Weeding effect in post-emergence stage, Abutilon theophrasti (level) (Abutilon theophrasti; Dose 60 g/ha): 5 (Level 5: growth control rate is above 85%) |
| C[C@@H](O/N=C/c1cc(-n2c(=O)cc(C(F)(F)F)n(C)c2=O)c(F)cc1Cl)C(=O)OCC(F)F [217(R)] | 5 (Level 5: growth control rate is above 85%) | 5 (Level 5: growth control rate is above 85%) | 5 (Level 5: growth control rate is above 85%) | 5 (Level 5: growth control rate is above 85%) | 5 (Level 5: growth control rate is above 85%) | 5 (Level 5: growth control rate is above 85%) | – |
| COC(=O)C(OC)OC(=O)[C@@H](C)O/N=C/c1cc(-n2c(=O)cc(C(F)(F)F)n(C)c2=O)c(F)cc1Cl (stereo partly drawn) [245(R)] | – | – | – | – | – | – | Weeding effect in post-emergence stage, Echinochloa crusgalli (Echinochloa crusgalli; Dose 30 g/ha): 5 (Level 5: growth control rate is above 85%); Weeding effect in post-emergence stage, Setaria viridis (Setaria viridis; Dose 30 g/ha): 5 (Level 5: growth control rate is above 85%); Weeding effect in post-emergence stage, Digitaria sanguinalis (Digitaria sanguinalis; Dose 30 g/ha): 5 (Level 5: growth control rate is above 85%); Weeding effect in post-emergence stage, Eleusine indica (Eleusine indica; Dose 30 g/ha): 5 (Level 5: growth control rate is above 85%); Weeding effect in post-emergence stage, Alopecurus japonicus (Alopecurus japonicus; Dose 30 g/ha): 5 (Level 5: growth control rate is above 85%); Weeding effect in post-emergence stage, Abutilon theophrasti (Abutilon theophrasti; Dose 30 g/ha): 5 (Level 5: growth control rate is above 85%) |
| CC(O/N=C/c1cc(-n2c(=O)n(C)c(=S)n(C)c2=O)c(F)cc1Cl)C(=O)OCCCC(F)(F)F (racemic) [Compound 12] | 5 (Level 5: growth control rate is above 85%) | 5 (Level 5: growth control rate is above 85%) | 5 (Level 5: growth control rate is above 85%) | 5 (Level 5: growth control rate is above 85%) | 5 (Level 5: growth control rate is above 85%) | 5 (Level 5: growth control rate is above 85%) | – |
| COC(=O)[C@@H](C)O/N=C/c1cc(-n2c(=O)n(C)c(=S)n(C)c2=O)c(F)cc1C(F)(F)F [85(R)] | 5 (Level 5: growth control rate is above 85%) | 5 (Level 5: growth control rate is above 85%) | 5 (Level 5: growth control rate is above 85%) | 5 (Level 5: growth control rate is above 85%) | 4 (Level 4: growth control rate is greater than or equal to 60% and less than 85%) | 5 (Level 5: growth control rate is above 85%) | – |
| CCCCCCC(C)OC(=O)C(C)O/N=C/c1cc(-n2c(=O)cc(C(F)(F)F)n(C)c2=O)c(F)cc1Cl (racemic) [Compound 207] | 5 (Level 5: growth control rate is above 85%) | 5 (Level 5: growth control rate is above 85%) | 5 (Level 5: growth control rate is above 85%) | 5 (Level 5: growth control rate is above 85%) | 5 (Level 5: growth control rate is above 85%) | 5 (Level 5: growth control rate is above 85%) | – |
| CC(O/N=C/c1cc(-n2c(=O)cc(C(F)(F)F)n(C)c2=O)c(F)cc1Cl)C(=O)O (racemic) [Compound 193] | 5 (Level 5: growth control rate is above 85%) | 5 (Level 5: growth control rate is above 85%) | 5 (Level 5: growth control rate is above 85%) | 5 (Level 5: growth control rate is above 85%) | 5 (Level 5: growth control rate is above 85%) | 5 (Level 5: growth control rate is above 85%) | – |
| COC(=O)[C@@H](C)S/N=C/c1cc(-n2c(=O)cc(C(F)(F)F)n(C)c2=O)c(F)cc1Cl [730(R)] | – | – | – | – | – | – | Weeding effect in post-emergence stage, Echinochloa crusgalli (level) (Echinochloa crusgalli; Dose 15 g/ha): 5 (Level 5: growth control rate is above 85%); Weeding effect in post-emergence stage, Setaria viridis (level) (Setaria viridis; Dose 15 g/ha): 5 (Level 5: growth control rate is above 85%); Weeding effect in post-emergence stage, Digitaria sanguinalis (level) (Digitaria sanguinalis; Dose 15 g/ha): 5 (Level 5: growth control rate is above 85%); Weeding effect in post-emergence stage, Eleusine indica (level) (Eleusine indica; Dose 15 g/ha): 5 (Level 5: growth control rate is above 85%); Weeding effect in post-emergence stage, Alopecurus japonicus (level) (Alopecurus japonicus; Dose 15 g/ha): 5 (Level 5: growth control rate is above 85%); Weeding effect in post-emergence stage, Abutilon theophrasti (level) (Abutilon theophrasti; Dose 15 g/ha): 5 (Level 5: growth control rate is above 85%) |
| COC(=O)C(C)O/N=C/c1cc(-n2c(=O)cc(C(F)(F)F)n(C)c2=O)c(F)cc1C(F)(F)F (stereo not drawn) [Compound 342] | 5 (Level 5: growth control rate is above 85%) | 5 (Level 5: growth control rate is above 85%) | 5 (Level 5: growth control rate is above 85%) | 5 (Level 5: growth control rate is above 85%) | 4 (Level 4: growth control rate is greater than or equal to 60% and less than 85%) | 5 (Level 5: growth control rate is above 85%) | – |
| CC(O/N=C/c1cc(-n2c(=O)cc(C(F)(F)F)n(C)c2=O)c(F)cc1Cl)C(=O)OCc1ccc(F)cc1 (stereo not drawn) [Compound 286] | – | – | – | – | – | – | Weeding effect in post-emergence stage, Echinochloa crusgalli (Echinochloa crusgalli; Dose 30 g/ha): 5 (Level 5: growth control rate is above 85%); Weeding effect in post-emergence stage, Setaria viridis (Setaria viridis; Dose 30 g/ha): 5 (Level 5: growth control rate is above 85%); Weeding effect in post-emergence stage, Digitaria sanguinalis (Digitaria sanguinalis; Dose 30 g/ha): 5 (Level 5: growth control rate is above 85%); Weeding effect in post-emergence stage, Eleusine indica (Eleusine indica; Dose 30 g/ha): 5 (Level 5: growth control rate is above 85%); Weeding effect in post-emergence stage, Alopecurus japonicus (Alopecurus japonicus; Dose 30 g/ha): 5 (Level 5: growth control rate is above 85%); Weeding effect in post-emergence stage, Abutilon theophrasti (Abutilon theophrasti; Dose 30 g/ha): 5 (Level 5: growth control rate is above 85%) |

Reference: patent US20230111310A1, “CARBOXYLIC ACID DERIVATIVE-SUBSTITUTED IMINO ARYL COMPOUND, PREPARATION METHOD THEREFOR, HERBICIDAL COMPOSITION AND USE THEREOF” (Qingdao Kingagroot Chemical Compound Co., Ltd., priority 2020, published 2023)
